Assay results as given in patent US20140135359A1, “METHODS OF DESIGNING, PREPARING, AND USING NOVEL PROTONOPHORES” (priority 2012, published 2014).
“Also recorded” adds a separate entry of the source.

Assays:
[1] = tested on: isolated rat liver mitochondria; assay: Uncoupling activity: increase in basal (state 4) oxygen consumption by oxygraphy; format: biochemical; conditions: for Measured Uncoupling Activity (% uncoupling ± SEM @ 100 μM): Suppl. Table 1, 2-3 mitochondrial preparations; for Uncoupling (%): increase in basal (state 4) oxygen consumption as % of average ADP-stimulated (state 3) rate in vehicle-treated mitochondria; for Measured Uncoupling (% uncoupling ± SEM @ 100 μM): Table 1A, relative to ADP-stimulated respiration = 100%; for Measured Uncoupling Activity (% uncoupling ± SEM @ 100 μM) / Measured Uncoupling (% uncoupling ± SEM @ 100 μM) / uncoupling activity: 100 μM; for uncoupling activity: result in words
[2] = tested on: isolated rat liver mitochondria; assay: Residual functional capacity / inhibitory effect on ADP-stimulated (state 3) oxygen consumption; format: biochemical; conditions: for inhibition of ADP-stimulated oxygen consumption: screening at 100 μM; for Residual capacity (%): functional capacity (state 3 minus state 4 rate) as % of vehicle-treated mitochondria

In the case of `O=c1c(O)c(-c2ccc(O)cc2O)oc2cc(O)cc(O)c12` [morin], the “Measured Uncoupling Activity (% uncoupling ± SEM @ 100 μM)” value [1] is reported as 1 ± 0 % uncoupling, the “Uncoupling (%)” value ([1]; test conc. 100 μM) is reported as 1 ± 0% and the “inhibition of ADP-stimulated oxygen consumption” value (“inhibition” for short) [2] is reported as “inhibitory activity”. For the same compound, the “Inhibitory effect (%)” value ([2]; test conc. 100 μM) was 60% and the “Residual capacity (%)” value ([2]; test conc. 100 μM) was 39 ± 3%.

`Oc1ccccc1O` [catechol] was tested, and the “Measured Uncoupling Activity (% uncoupling ± SEM @ 100 μM)” value [1] was 0 ± 0 % uncoupling, the “Uncoupling (%)” value ([1]; test conc. 100 μM) was 0 ± 0% and the “Inhibitory effect (%)” value ([2]; test conc. 100 μM) was 12%. The “Residual capacity (%)” value ([2]; test conc. 100 μM) was 88 ± 1%.

With `Cc1ccc(C(C)C)cc1O` [carvacrol] the “Measured Uncoupling Activity (% uncoupling ± SEM @ 100 μM)” value [1] was 7 ± 2 % uncoupling, the “Uncoupling (%)” value ([1]; test conc. 100 μM) was 7 ± 2% and the “Inhibitory effect (%)” value ([2]; test conc. 100 μM) was 10%. The “Residual capacity (%)” value ([2]; test conc. 100 μM) was 83 ± 2%.

With `O=C(/C=C/c1ccccc1)c1ccc(O)cc1` [4′-hydroxychalcone] the “Measured Uncoupling Activity (% uncoupling ± SEM @ 100 μM)” value [1] was 74 ± 14 % uncoupling, the “Measured Uncoupling (% uncoupling ± SEM @ 100 μM)” value [1] was 74 ± 14 % uncoupling and the “Uncoupling (%)” value ([1]; test conc. 25 μM) was 13 ± 2%. The “Uncoupling (%)” value ([1]; test conc. 100 μM) was 74 ± 14%, the “Inhibitory effect (%)” value ([2]; test conc. 25 μM) was 7% and the “Residual capacity (%)” value ([2]; test conc. 25 μM) was 80 ± 2%. For the same compound, the “Inhibitory effect (%)” value ([2]; test conc. 100 μM) was 0% and the “Residual capacity (%)” value ([2]; test conc. 100 μM) was 26 ± 19%.

`O=c1c(-c2ccc(O)cc2)coc2cc(O)ccc12` [daidzein] was tested, and the “Measured Uncoupling Activity (% uncoupling ± SEM @ 100 μM)” value [1] was 6 ± 1 % uncoupling, the “Uncoupling (%)” value ([1]; test conc. 25 μM) was 3 ± 1% and the “Uncoupling (%)” value ([1]; test conc. 100 μM) was 6 ± 1%. The “Inhibitory effect (%)” value ([2]; test conc. 25 μM) was 19%, the “Residual capacity (%)” value ([2]; test conc. 25 μM) was 78 ± 5% and the “Inhibitory effect (%)” value ([2]; test conc. 100 μM) was 26%. For the same compound, the “Residual capacity (%)” value ([2]; test conc. 100 μM) was 68 ± 4%.

In the case of `COc1cc(/C=C/C(=O)O)ccc1O` [ferulic acid], the “Measured Uncoupling Activity (% uncoupling ± SEM @ 100 μM)” value [1] is reported as −1 ± 1 % uncoupling, the “Uncoupling (%)” value ([1]; test conc. 100 μM) is reported as −1 ± 1% and the “Inhibitory effect (%)” value ([2]; test conc. 100 μM) is reported as 9%. The “Residual capacity (%)” value ([2]; test conc. 100 μM) was 91 ± 9%.

`O=C(/C=C/c1ccc(O)c(O)c1)OCCc1ccccc1` [caffeic acid phenethyl ester] was tested, and the “Uncoupling (%)” value ([1]; test conc. 25 μM) was 56 ± 13%, the “Uncoupling (%)” value ([1]; test conc. 100 μM) was 57 ± 35% and the “Inhibitory effect (%)” value ([2]; test conc. 25 μM) was 5%. For the same compound, the “Residual capacity (%)” value ([2]; test conc. 25 μM) was 39 ± 12%, the “Inhibitory effect (%)” value ([2]; test conc. 100 μM) was 43% and the “Residual capacity (%)” value ([2]; test conc. 100 μM) was 0 ± 0%.

In the case of `O=C(CCc1ccc(O)cc1)c1c(O)cc(O)cc1O` [phloretin], the “Measured Uncoupling Activity (% uncoupling ± SEM @ 100 μM)” value [1] is reported as 15 ± 3 % uncoupling, the “Uncoupling (%)” value ([1]; test conc. 25 μM) is reported as 3 ± 1% and the “Uncoupling (%)” value ([1]; test conc. 100 μM) is reported as 15 ± 3%. The “Inhibitory effect (%)” value ([2]; test conc. 25 μM) was 0%, the “Residual capacity (%)” value ([2]; test conc. 25 μM) was 99 ± 12% and the “Inhibitory effect (%)” value ([2]; test conc. 100 μM) was 44%. For the same compound, the “Residual capacity (%)” value ([2]; test conc. 100 μM) was 41 ± 17%.

`O=c1c(O)c(-c2ccc(O)c(O)c2)oc2cc(O)cc(O)c12` [quercetin] was tested, and the “Measured Uncoupling Activity (% uncoupling ± SEM @ 100 μM)” value [1] was 8 ± 1 % uncoupling, the “Uncoupling (%)” value ([1]; test conc. 25 μM) was 4 ± 0% and the “Uncoupling (%)” value ([1]; test conc. 100 μM) was 8 ± 1%. For the same compound, the “inhibition” value [2] was “inhibitory activity”, the “Inhibitory effect (%)” value ([2]; test conc. 25 μM) was 36% and the “Residual capacity (%)” value ([2]; test conc. 25 μM) was 60 ± 10%. For the same compound, the “Inhibitory effect (%)” value ([2]; test conc. 100 μM) was 80% and the “Residual capacity (%)” value ([2]; test conc. 100 μM) was 12 ± 5%.

For `Cc1cc(O)c2c(c1)C(=O)c1cc(O)cc(O)c1C2=O` [frangulic acid], the “Measured Uncoupling Activity (% uncoupling ± SEM @ 100 μM)” value [1] was 78 ± 14 % uncoupling, the “Measured Uncoupling (% uncoupling ± SEM @ 100 μM)” value [1] was 78 ± 14 % uncoupling and the “uncoupling potency compared with 2,4-dinitrophenol” value ([1]; dose-escalation) was “potency on the order of that of 2,4-dinitrophenol”. For the same compound, the maximal inducible uncoupling ([1]; dose-escalation, 100 μM or below) was “complete uncoupling”, the “Uncoupling (%)” value ([1]; test conc. 25 μM) was 59 ± 16% and the “Uncoupling (%)” value ([1]; test conc. 100 μM) was 78 ± 14%. The “Inhibitory effect (%)” value ([2]; test conc. 25 μM) was 41%, the “Residual capacity (%)” value ([2]; test conc. 25 μM) was 0 ± 0% and the “Inhibitory effect (%)” value ([2]; test conc. 100 μM) was 22%. For the same compound, the “Residual capacity (%)” value ([2]; test conc. 100 μM) was 0 ± 0%.

In the case of `O=C(O[C@@H]1Cc2c(O)cc(O)cc2O[C@@H]1c1cc(O)c(O)c(O)c1)c1cc(O)c(O)c(O)c1` [epigallocatechin gallate], the uncoupling activity [1] is reported as “devoid of activity”.

`O=c1c(O)c(-c2ccccc2O)oc2cc(O)cc(O)c12` [datiscetin] was tested, and the “Measured Uncoupling Activity (% uncoupling ± SEM @ 100 μM)” value [1] was 33 ± 3 % uncoupling, the “uncoupling potency compared with 2,4-dinitrophenol” value ([1]; dose-escalation) was “potency on the order of that of 2,4-dinitrophenol” and the “slope of the linear portion of the concentration-to-activity relationship” value ([1]; dose-escalation, logarithmic scales) was 0.44. The “Uncoupling (%)” value ([1]; test conc. 25 μM) was 15 ± 2%, the “Uncoupling (%)” value ([1]; test conc. 100 μM) was 33 ± 3% and the “inhibition” value [2] was “inhibitory activity”. The “Inhibitory effect (%)” value ([2]; test conc. 25 μM) was 33%, the “Residual capacity (%)” value ([2]; test conc. 25 μM) was 52 ± 9% and the “Inhibitory effect (%)” value ([2]; test conc. 100 μM) was 67%. For the same compound, the “Residual capacity (%)” value ([2]; test conc. 100 μM) was 0 ± 0%.

In the case of `O=C1c2ccccc2C(=O)c2ccccc21` [anthraquinone], the uncoupling activity [1] is reported as “inactive”, the “Measured Uncoupling Activity (% uncoupling ± SEM @ 100 μM)” value [1] is reported as −1 ± 1 % uncoupling and the “Uncoupling (%)” value ([1]; test conc. 100 μM) is reported as −1 ± 1%. The “Inhibitory effect (%)” value ([2]; test conc. 100 μM) was 15% and the “Residual capacity (%)” value ([2]; test conc. 100 μM) was 85 ± 21%.

With `O=c1cc(-c2ccccc2)oc2ccccc12` [flavone] the uncoupling activity [1] was “inactive”, the “Measured Uncoupling Activity (% uncoupling ± SEM @ 100 μM)” value [1] was −1 ± 2 % uncoupling and the “Uncoupling (%)” value ([1]; test conc. 100 μM) was −1 ± 2%. For the same compound, the “Inhibitory effect (%)” value ([2]; test conc. 100 μM) was 25% and the “Residual capacity (%)” value ([2]; test conc. 100 μM) was 75 ± 13%.

In the case of `O=c1ccoc2cc(O)ccc12` [7-hydroxychromone], the uncoupling activity [1] is reported as “no appreciable activity; also recorded: lack of activity”, the “Measured Uncoupling Activity (% uncoupling ± SEM @ 100 μM)” value [1] is reported as 0 ± 0 % uncoupling and the “Uncoupling (%)” value ([1]; test conc. 100 μM) is reported as 0 ± 0%. For the same compound, the “Inhibitory effect (%)” value ([2]; test conc. 100 μM) was 14% and the “Residual capacity (%)” value ([2]; test conc. 100 μM) was 86 ± 2%.

With `Oc1cc(O)cc(/C=C/c2ccc(O)c(O)c2)c1` [piceatannol (trans)] the “Uncoupling (%)” value ([1]; test conc. 25 μM) was 1 ± 1%, the “Uncoupling (%)” value ([1]; test conc. 100 μM) was 5 ± 1% and the “Inhibitory effect (%)” value ([2]; test conc. 25 μM) was 64%. For the same compound, the “Residual capacity (%)” value ([2]; test conc. 25 μM) was 35 ± 7%, the “Inhibitory effect (%)” value ([2]; test conc. 100 μM) was 89% and the “Residual capacity (%)” value ([2]; test conc. 100 μM) was 6 ± 3%.

`O=C(O)c1ccccc1O` [salicylic acid] was tested, and the “Measured Uncoupling Activity (% uncoupling ± SEM @ 100 μM)” value [1] was 4 ± 0 % uncoupling, the “Uncoupling (%)” value ([1]; test conc. 100 μM) was 4 ± 0% and the “Inhibitory effect (%)” value ([2]; test conc. 100 μM) was 6%. For the same compound, the “Residual capacity (%)” value ([2]; test conc. 100 μM) was 90 ± 2%.

For `O=C1C[C@@H](c2ccc(O)cc2)Oc2cc(O)cc(O)c21` (racemic) [(±) naringenin, naringenin], the “Measured Uncoupling Activity (% uncoupling ± SEM @ 100 μM)” value [1] was 4 ± 2 % uncoupling, the “Uncoupling (%)” value ([1]; test conc. 100 μM) was 4 ± 2% and the “Inhibitory effect (%)” value ([2]; test conc. 100 μM) was 31%. For the same compound, the “Residual capacity (%)” value ([2]; test conc. 100 μM) was 65 ± 7%.

For `O=c1cc(-c2ccc(O)cc2)oc2c(-c3c(O)cc(O)c4c(=O)cc(-c5ccc(O)cc5)oc34)c(O)cc(O)c12` [cupressuflavone], the “Measured Uncoupling Activity (% uncoupling ± SEM @ 100 μM)” value [1] was −2 ± 0 % uncoupling, the “Uncoupling (%)” value ([1]; test conc. 100 μM) was −2 ± 0% and the “Inhibitory effect (%)” value ([2]; test conc. 100 μM) was 5%. For the same compound, the “Residual capacity (%)” value ([2]; test conc. 100 μM) was 95 ± 4%.

In the case of `COc1ccc(-c2coc3cc(O)cc(O)c3c2=O)cc1` [biochanin A], the uncoupling activity [1] is reported as “complete uncoupling”, the “Measured Uncoupling Activity (% uncoupling ± SEM @ 100 μM)” value [1] is reported as 103 ± 22 % uncoupling and the “Measured Uncoupling (% uncoupling ± SEM @ 100 μM)” value [1] is reported as over 100 % uncoupling. For the same compound, the “Uncoupling (%)” value ([1]; test conc. 25 μM) was 75 ± 36%, the “Uncoupling (%)” value ([1]; test conc. 100 μM) was 103 ± 22% and the “Inhibitory effect (%)” value ([2]; test conc. 25 μM) was 0%. For the same compound, the “Residual capacity (%)” value ([2]; test conc. 25 μM) was 27 ± 27%, the “Inhibitory effect (%)” value ([2]; test conc. 100 μM) was 0% and the “Residual capacity (%)” value ([2]; test conc. 100 μM) was 0 ± 0%.

For `Oc1ccc(/C=C/c2cc(O)cc(O)c2)cc1` [trans-resveratrol], the “Measured Uncoupling Activity (% uncoupling ± SEM @ 100 μM)” value [1] was 2 ± 0 % uncoupling.

`Cc1ccc(C(C)C)c(O)c1` [thymol] was tested, and the “Measured Uncoupling Activity (% uncoupling ± SEM @ 100 μM)” value [1] was 6 ± 0 % uncoupling, the “Uncoupling (%)” value ([1]; test conc. 100 μM) was 6 ± 0% and the “Inhibitory effect (%)” value ([2]; test conc. 100 μM) was 29%. For the same compound, the “Residual capacity (%)” value ([2]; test conc. 100 μM) was 65 ± 5%.

In the case of `Oc1cc(O)cc(/C=C/c2ccc(O)c(O)c2)c1` [trans-piceatannol], the “Measured Uncoupling Activity (% uncoupling ± SEM @ 100 μM)” value [1] is reported as 5 ± 1 % uncoupling.

In the case of `C(=C\c1ccccc1)/c1ccccc1` [trans-stilbene], the “Measured Uncoupling Activity (% uncoupling ± SEM @ 100 μM)” value [1] is reported as −1 ± 1 % uncoupling.

In the case of `C(=Cc1ccccc1)c1ccccc1` [stilbene], the uncoupling activity [1] is reported as “inactive”.

For `Oc1ccc(C=Cc2cc(O)cc(O)c2)cc1` [resveratrol], the “inhibition” value [2] was “inhibitory activity”.

In the case of `CC(=O)c1ccc(O)cc1` [para-acetylphenol], the uncoupling activity [1] is reported as “no appreciable activity”.
